Assay results: US4617394A, “4-methyl-5-(unsubstituted and substituted phenoxy)-2,6-dimethoxy-8-(aminoalkylamino) quinolines” (priority 1985, dated 1986)
Several values for one entry are separate records, joined by “and”; a condition that tells them apart may be missing. Equal entries are not always repeated. Entries after “also recorded” stand apart in the source; their conditions may differ. Where two headings read alike, the source gives them in different places.

Tests used:
[1] = test system: Plasmodium berghei KBG 173; test: animal or person; type: in vivo, young ICR/HA Swiss mice; conditions: for ΔMST: 5 mice; for Toxic death (T): number of 5 mice, 320 mg/kg
Text: Blood Schizonticidal Test (Mouse), University of Miami, Rane (suppressive)
This system is based on comparisons of responses to test compounds by Plasmodium berghei KBG 173 malaria in mice as expressed in mean survival times and the mean survival times of untreated controls. Thus, compounds noted as active produce increases in the survival times of the treated animals that are significant when compared with the survival times of untreated controls. Since an established disease is less sensitive to treatment than a disease in the early stages of development, treatment is withheld until the parasitemia is relatively high in order to insure a more reliable assay of activity and the selection of appropriate compounds for intensive preclinical studies.
Utilizing young ICR/HA Swiss mice and a standard inoculum of Plasmodium berghei KBG 173, it is possible to produce a uniform disease fatal to 100% of untreated animals within 6 to 8 days with a mean survival time of 6.2 days. Test animals weigh from 18 to 22 grams but weight variations in any given experimental or control group are confined to 2 to 3 grams. All animals in any given test are approximately of the same age. Animals on test are housed in metal-topped plastic cages, given a standard laboratory diet and water ad libitum.
Test animals receive an intraperitoneal injection of 0.5 ml of 1:100 dilution of heparinized heart's blood with a minimum of 90% parasitized cells (4×10^7 cells), drawn from donor mice infected one week earlier with Plasmodium berghei. The donor strain is maintained by weekly passages in separate groups of mice inoculated with a 0.5 ml of 1:500 dilution of heparinized heart's blood.
Test compounds are administered after dissolution or suspension in peanut oil. A single dose is given subcutaneously 72 hours after the mice are infected with Plasmodium berghei. At this time a 10-15 percent parasitemia has developed; the disease is well established but has not produced sufficient debility to alter the response of the host to toxic effects of the drug on test. Since treatment is withheld for three days to permit the infection to become well established and death occurs in untreated controls within 6 to 8 days, it is believed that this system presents a candidate compound with the maximum challenge. In order to check factors such as changes in the infectivity of Plasmodium berghei or in the susceptibility of the host or to detect technical errors, a group of infected animals treated with pyrimethamine at dose levels producing definite increases in survival time is included as a positive control in every experiment.
In each experiment test compounds are administered in graded doses. […] However, if an active drug is toxic for the host, its toxicity may become a limiting factor; continued increases in dose levels also increase the toxic effects and may result in the diminution of survival times. Deaths prior to the sixth day, when untreated controls begin to die, are regarded as non-parasitic and become the basis for the interpretation that the drug is toxic. Treated animals are kept under observation for 60 days. Survivors at the end of this period of time are considered as cured.
An increase of 100% in mean survival time is considered the minimum effective response for a candidate compound. In calculating mean survival time, toxic deaths and 60 day survivors are not included.

[2] = test system: Plasmodium cynomolgi (strain B); test: Radical Curative Test in Rhesus Monkeys, SEATO Medical Research Laboratory; type: in vivo, Indian rhesus monkeys; conditions: for Cures (C): Table 8, Seato; for Radical Curative Activity, Cures (C): Table 1, Seato Rhesus
Procedure: Radical Curative Test in Rhesus Monkeys, SEATO Medical Research Laboratory, Bangkok,
This test is designed to evaluate the tissue schizonticidal (radical curative) activity of test compounds. Well-conditioned Indian rhesus monkeys of either sex weighing 2-4 Kg are utilized. Plasmodium cynomolgi (strain B) sporozoites are prepared by grinding heavily infected Anopheles dirus salivary glands in 1:1 monkey serum-saline vehicle.
Monkeys are infected by I.V. injection of 10^6 freshly isolated P. cynomolgi sporozoites on day 0. A rapidly rising parasitemia develops after a 7 to 9 day prepatient period, and administration of the test drug is initiated when the rising parasite count exceeds 5000 per mm^3 (typically day 10-12). Test drugs are administered orally (by nasogastric intubation) once daily for 7 consecutive days in aqueous solution or, if insoluble, in suspension in 0.3% methylcellulose solution. Chloroquine diphosphate (3.1 mg of base/kg orally per day) is always administered concurrently with the test drug for 7 days to eliminate blood schizonts. Thus any tissue schizonticidal activity of the test drug will always be apparent even if it lacks blood schizonticidal activity.
A vehicle control monkey and a positive drug control (primaquine) monkey are included in each group of inoculated monkeys.
The effect of the test drug is determined by counting blood parasites. Parasite counts are made daily through day 20, and every two days thereafter. Initially a clearance of blood parasites is observed due to the blood schizonticidal action of chloroquine. […] If there is no relapse within 20 days of the initial clearance of parasitemia, the monkey is splenectomized and its parasitemia followed for an additional 30 days. If there is no relapse within this period, the experiment is terminated and the monkey is considered "cured". Alternately, in some experiments, negative parasitemia was followed for 100 days without prior splenectomy. It has been determined that the splenectomy and non-splenectomy methods yield virtually identical results.
Primaquine diphosphate cures over 90% of monkeys in this test system when administered at a dose of 1.3 mg/kg of salt per day for 7 days ([…]) in combination with chloroquine.

[3] = test system: Chesson strain of P. vivax; test: Antimalarial activity against (trophozoite-induced) infections of the Chesson strain of P. vivax in the Aotus monkey; type: in vivo
P. berghei yoelli = test: Causal prophylactic activity against sporozoite induced P. berghei yoelli in the mouse; type: in vivo; conditions: for Cures: subcutaneous
methemoglobin [4] = type: in vivo, Dog; conditions: for Peak % MHb / Slope of MHb Formation / Time of Peak MHb / MHb Disappearance Half-Time / MHb Production as AUC Corrected for Baseline: oral capsule, days 0-3, 3 mg/kg primaquine base per day or molar equivalent; for Peak % MHb / Slope of MHb Formation / Time of Peak MHb / MHb Production as AUC Corrected for Baseline: means differ significantly (p <.05); for MHb Disappearance Half-Time: no difference in the means; for MHb Production as AUC Corrected for Baseline: total methemoglobin production
Procedure: ^a Primaquine, Comparative Compound, or Compound X, were administered
orally by capsule for four days on days 0, 1, 2 and 3 at a dose of 3 mg/k
primaquine base per day or the molar equivalent.
^e Total methemoglobin production expressed as mg of MHb/ml of
blood/hr for a total of 2 days after administration of the first dose.
^f Area under the % methemoglobin versus time curve (AUC).

[5] = Acute toxicity in the rat by oral or intraperitoneal administration; conditions: for LD50 (95% Confidence Limit): Rat
methemoglobin [6] = conditions: background; cited from earlier work
[7] = test system: Plasmodium vivax and P. ovale malaria; conditions: background; cited from earlier work
[8] = test system: Plasmodium berghei KBG 173; conditions: dose levels as low as; cited from earlier work
[9] = Table 2, P. cynomolgi, Rhesus, 0.10 mg/kg × 7 of salt
[10] = Table 2, P. cynomolgi, Rhesus, 0.316 mg/kg × 7 of salt
[11] = Table 2, P. cynomolgi, Rhesus, 1.0 mg/kg × 7 of salt

COc1cc(C)c2c(Oc3cccc(C(F)(F)F)c3)c(OC)cc(NC(C)CCCN)c2n1.O=C(O)CCC(=O)O (stereo not shown) [Compound X, 8-(4-Amino-1-methylbutylamino)-2,6-dimethoxy-4-methyl-5-(3-trifluoromethylphenoxy)quinoline Succinate]
blood schizonticidal activity in the mouse, in words ([1]; Table 4): blood schizonticidal activity in the mouse similar to the Comparative Compound | ΔMST ([1]; Table 4, 5 mg/kg): 4 days | ΔMST ([1]; Table 4, 10 mg/kg): 6 days | ΔMST ([1]; Table 4, 20 mg/kg): 9 days | Cures ([2]; Table 2, P. cynomolgi, Rhesus, 0.0316 mg/kg × 7 of salt): 0/2 | Cures [2, 9]: 2/4 | Cures [2, 10]: 4/4 | Cures [2, 11]: 2/2 | Molar Primaquine Index by Regression Analysis ([2]; Table 2, ratio of molar ED50, relative to primaquine): 12.8 | Cures (C) ([2]; P. cynomolgi, 0.0316 mg/kg (×7)): 0/2 | Cures (C) ([2]; P. cynomolgi, 0.1 mg/kg (×7)): 2/4 | Cures (C) ([2]; P. cynomolgi, 0.316 mg/kg (×7)): 4/4 | Cures (C) ([2]; P. cynomolgi, 1.0 mg/kg (×7)): 2/2 | potency relative to primaquine diphosphate, molar basis ([2]; calculated by regression analysis, P. cynomolgi, Rhesus): 12.8 times | potency relative to Comparative Compound ([2]; radical curative, P. cynomolgi, Rhesus): approximately two | Cures ([3]; 1 mg/kg × 3 of base): 2/2 | Cures ([3]; 4 mg/kg × 3 of base): 4/4 | Cures ([3]; 16 mg/kg × 3 of base): 3/3 | Cures ([3]; 32 mg/kg × 3 of base): 1/1 | blood schizonticidal activity in words ([3]; Table 3, Succinate): much greater blood schizonticidal activity than primaquine; also recorded: slightly better activity than the Comparative Compound | Cures (P. berghei yoelli; 2.5 mg/kg of salt): 0/5 | Cures (P. berghei yoelli; 10 mg/kg of salt): 4/10 | Cures (P. berghei yoelli; 40 mg/kg of salt): 9/10 | Cures (P. berghei yoelli; 160 mg/kg of salt): 5/5 | prophylactic activity in words (P. berghei yoelli; Table 5, Succinate): showed prophylactic activity; also recorded: slightly less than that observed with the Comparative Compound | total methemoglobin formation (area under the curve), less than Comparative Compound (methemoglobin [4]; Table 7, 46% less): 46% | methemoglobin-forming property in words (methemoglobin [4]; Table 7, Succinate): significantly less toxic in terms of methemoglobinemia | peak level of methemoglobin (methemoglobin [4]; Table 7, equimolar doses): 16% | methemoglobin-forming property in words (methemoglobin [4]; Table 7, listed as Compound X succinate, Succinate): much less potent methemoglobin-forming compound than the Comparative Compound | MHb Disappearance Half-Time, individual dogs (methemoglobin [4]; footnote h, data of single dogs of the group, Succinate): 5.08 days and 7.71 days and 23.30 days | Peak % MHb (methemoglobin [4]): 16.0 ± 7.72% | Slope of MHb Formation (methemoglobin [4]): 0.61 ± 0.10 | Time of Peak MHb (methemoglobin [4]): 6.83 ± 0.72 days | MHb Disappearance Half-Time (methemoglobin [4]): 12.03 ± 9.85 days | MHb Production as AUC Corrected for Baseline (methemoglobin [4]): 7,887 ± 3,609 mg of MHb/ml of blood/hr | LD50 (95% Confidence Limit) ([5]; female, I.P.): 71 (14-114) mg/kg (Salt) | LD50 (95% Confidence Limit) ([5]; female, oral): 416 (376-449) mg/kg (Salt) | LD50 (95% Confidence Limit) ([5]; male, I.P.): 102 (25-164) mg/kg (Salt) | LD50 (95% Confidence Limit) ([5]; male, oral): 429 (320-515) mg/kg (Salt) | acute toxicity in words ([5]; Table 6, orally or intraperitoneally): less toxic than primaquine or the Comparative Compound

COc1cc(NC(C)CCCN)c2ncccc2c1 (stereo not shown) [Primaquine diphosphate, 8-(4-amino-1-methylbutylamino)-6-methoxyquinoline]
minimal effective dose ([1]; Plasmodium berghei, in Mus musculus, Table 4, read-out: active dose (active only at)): 160 mg/kg | suppressive activity in words ([1]; Rane mouse test): very weak activity at non-toxic dose levels | ΔMST ([1]; Table 1, P. berghei, Rane Mouse Test, 160 mg/kg): 9 days | Toxic death (T) ([1]; Table 1): 2/5 | ΔMST ([1]; Table 4, 160 mg/kg): 9 days | curative activity in words ([1]; Table 4, highest dose of 640 mg/kg): not curative even at the highest dose of 640 mg/kg | Toxic death (T) ([1]; Table 4): 2/5 | radical curative activity in words ([2]; 0.316 mg/kg): inactive | Cures ([2]; 1.0 mg/kg): 50% | Cures ([2]; 1.3 mg/kg): 100% | monkeys cured ([2]; 1.3 mg/kg of salt per day for 7 days (1.0 mg/kg free base), in combination with chloroquine): over 90% | Radical Curative Activity, Cures (C) ([2]; P. cynomolgi, 0.316 mg/kg (× 7)): 0/2 | Radical Curative Activity, Cures (C) ([2]; P. cynomolgi, 1.0 mg/kg (× 7)): 1/2 | Radical Curative Activity, Cures (C) ([2]; P. cynomolgi, 1.3 mg/kg (× 7)): 6/6 | Cures [2, 9]: 0/2 | Cures [2, 10]: 0/2 | Cures [2, 11]: 1/2 | Cures ([2]; Table 2, P. cynomolgi, Rhesus, 1.3 mg/kg × 7 of salt): 6/6 | Cures ([3]; 3.3 mg/kg × 3 of base): 0/10 | Cures ([3]; 13.3 mg/kg × 3 of base): 3/8 | Cures ([3]; 26 mg/kg × 3 of base): 5/6 | Peak % MHb (methemoglobin [4]): 6.27 ± 3.86% | Slope of MHb Formation (methemoglobin [4]): 0.93 ± 0.61 | Time of Peak MHb (methemoglobin [4]): 3.92 ± 0.34 days | MHb Disappearance Half-Time (methemoglobin [4]): 7.89 ± 3.30 days | MHb Production as AUC Corrected for Baseline (methemoglobin [4]): 2,138 ± 1,484 mg of MHb/ml of blood/hr | methemoglobin formation in words (methemoglobin [6]): cause methemoglobinemia; also recorded: Methemoglobin formation is induced | toxicity in man, in words [7]: the toxicity of primaquine precludes administration of a single curative dose | LD50 (95% Confidence Limit) ([5]; female, oral): 244 (193-260) mg/kg (Salt)

OC(c1cc(C(F)(F)F)nc2c(C(F)(F)F)cccc12)C1CCCCN1 (stereo not shown) [mefloquine]
curative dose, Rane Mouse Test [8]: 20 mg/kg
